This passage reports cytotoxicity results from ChEMBL document CHEMBL3507680, “University of Dundee, Gates Library screen for HepG2 cell viability”.

A short description of the data set: Human HepG2 cell viability assay in 384 well format. The format is toxicity, cell-based. Also on record: dose 125 nL, time 70.5 hour; concentration not given beside the values. To be noted: HepG2 cells, read-out: Inhibition.
For the molecule `CCOCC1CN(C(=O)N2CCCC2)Cc2cnn(C)c21` (stereo not drawn), the cytotoxicity at 70.5 h is -6.47%.

With `CC(=O)NCC(=O)N1CCc2nc(C)nc(C)c2CC1`, the cytotoxicity at 70.5 h was found to be 5.59%.

`O=C([C@H]1CC[C@@H]2[C@@H](CCN2C2CCCCC2)O1)N1CCOCC1`: the cytotoxicity at 70.5 h was -7.67%.

As to `COc1c(Cl)cc(Cl)cc1CN1CCC(C(N)=O)C1` (stereo not drawn), the cytotoxicity at 70.5 h came out at 8.49%.

For the molecule `COc1cccc(Cl)c1C(C(=O)O)N1CCC(Cn2cccn2)CC1` (stereo not drawn), the cytotoxicity at 70.5 h turned out to be 17.9%.

For `CC(C)C(C)N(Cc1ccccn1)Cc1ccco1` (stereo not drawn), the cytotoxicity at 70.5 h is -22.8%.

In the case of `CN1CCN(Cc2cccnc2)C2(CCN(C3CCOCC3)C2)C1=O` (stereo not drawn), the cytotoxicity at 70.5 h is -5.52%.

As for `CN(Cc1ccc2c(c1)OCO2)Cc1nc2c(cnn2C)c(=O)[nH]1`, the cytotoxicity at 70.5 h came out at 1.92%.

For `CCc1ncncc1C(=O)NCCNC(=O)c1ccc(C)c(F)c1`, the cytotoxicity at 70.5 h is -8.42%.

In the case of `COCCN1C[C@@H]2COC[C@@H](CC(=O)NCc3cccnc3)[C@@H]2C1`, the cytotoxicity at 70.5 h is -16.6%.

With `Cc1cc(C)nc(Nc2cc(C)nc(C3CCN(C(=O)CO)C3)n2)n1` (stereo not drawn), the cytotoxicity at 70.5 h is -7.3%.

For `CCc1noc(C(C)N2CCN(CC)CC2)n1` (stereo not drawn), the cytotoxicity at 70.5 h was -8.24%.

As for `CN1CCCC(N(C)C(=O)c2ccc(NC(=O)c3ccc[nH]3)cc2)C1` (stereo not drawn), the cytotoxicity at 70.5 h is -0.19%.

With `Cn1cc(-c2nc(C(=O)N3CCCC3Cn3cccn3)cs2)cn1` (stereo not drawn), the cytotoxicity at 70.5 h is -4.01%.

Take `Cc1ncsc1CCC(=O)NCc1cc2n(n1)CCNC2`: the cytotoxicity at 70.5 h is -8.17%.

For `Cc1ccc(CN2CC[C@H]3NC(=O)CC[C@@H]32)o1`, the cytotoxicity at 70.5 h is -6.53%.

`O=C(O)[C@@H]1CN(Cc2ccc3nsnc3c2)C[C@H]1c1cccnc1`: the cytotoxicity at 70.5 h is 1.8%.

For the molecule `O=C(NCc1cncc2c1CCN(Cc1ccoc1)C2)C1CC1`, the cytotoxicity at 70.5 h is -0.887%.

In the case of `CC(C)NC(=O)COc1cccc(-c2nc(C(C)C)no2)c1`, the cytotoxicity at 70.5 h was found to be 20.9%.

Turning to `O=C(COc1coc(CN2CCCCC2)cc1=O)Nc1ccc(Cl)cc1`, the cytotoxicity at 70.5 h is -3.76%.

As for `COCCC1(CNC(=O)NCC2CN(C)CCN2C)CCC1` (stereo not drawn), the cytotoxicity at 70.5 h was -2.66%.

On to `Cc1ccsc1CCNC(C)C(=O)NC1CCCC1` (stereo not drawn), for which the cytotoxicity at 70.5 h is -10.7%.

Regarding `O=C(NCC1CCCO1)c1cc(-c2ccncc2)c2cnccc2n1` (stereo not drawn), the cytotoxicity at 70.5 h is -8.71%.

Consider `O=C(Nc1cccnc1)[C@H]1CO[C@H]2CCNC[C@H]2C1`, for which the cytotoxicity at 70.5 h came to 0.847%.

As to `Cc1csc(N2CCN(C(=O)NCCNc3ncccn3)CC2)n1`, the cytotoxicity at 70.5 h was -5.98%.

Turning to `CC(C)c1nccn1-c1cncc(C2CCCN(C3CCCC3)C2)n1` (stereo not drawn), the cytotoxicity at 70.5 h was 19.3%.

As to `CCO[C@H]1CN(C(=O)c2ccnnc2)[C@@H]2COC[C@H]12`, the cytotoxicity at 70.5 h was -10.7%.

Consider `Cc1ccc2c(c1)C(=O)NCC1(CCN(C(=O)c3csc(C)c3)CC1)O2`, for which the cytotoxicity at 70.5 h is -9.12%.

On to `CCc1nnc2n1CCN(Cc1csc(-c3ccccc3F)n1)C2`, for which the cytotoxicity at 70.5 h was -7.77%.

With `CCN(CC)C(CNC(=O)c1ccc(S(C)(=O)=O)cc1)c1ccco1` (stereo not drawn), the cytotoxicity at 70.5 h was -0.309%.

In the case of `CC1CCN(C)c2ccccc2N1C(=O)c1ccc(=O)n(C)c1` (stereo not drawn), the cytotoxicity at 70.5 h is -6.14%.

`Cc1ccc(NCCCNC(=O)C2CCCN(Cc3ccco3)C2)nc1` (stereo not drawn): the cytotoxicity at 70.5 h was determined as 7.19%.

As to `CC[C@H](C)[C@H](NC(=O)c1cccc(-n2cnnn2)c1)C(=O)OC`, the cytotoxicity at 70.5 h was -11%.

As for `CCOC(=O)c1sc(NC(=O)COC)c(C#N)c1C`, the cytotoxicity at 70.5 h is 28.6%.

In the case of `COCC(=O)N1C[C@H]2CN(Cc3cccc(F)c3)C(=O)[C@H]2C1`, the cytotoxicity at 70.5 h was determined as 8.07%.

As for `CC(C)NC(=O)CC1COC2(CCN(Cc3cccs3)CC2)C1` (stereo not drawn), the cytotoxicity at 70.5 h is -20.6%.

Regarding `CC(CN1CCOCC1)NC(=O)c1cc(Cl)c2c(c1)OCO2` (stereo not drawn), the cytotoxicity at 70.5 h was 2.56%.

Turning to `OC1(CN2CCC(Cc3ccccc3)CC2)CCC1`, the cytotoxicity at 70.5 h is -4.49%.

On to `Cc1cc(C2CCCN2Cc2cc(=O)n(C)c(=O)n2C)on1` (stereo not drawn), for which the cytotoxicity at 70.5 h was -12.3%.

Regarding `CN(C)S(=O)(=O)N1CC[C@]2(O)CCN(c3cc(C#N)ccn3)C[C@@H]2C1`, the cytotoxicity at 70.5 h was -7.65%.

As to `CCc1nc2c(s1)C(N(C)C(=O)c1cc[nH]n1)CCC2` (stereo not drawn), the cytotoxicity at 70.5 h was -10.2%.

Turning to `CN(C)c1nc(NCc2cccnc2N)ncc1F`, the cytotoxicity at 70.5 h is 0.515%.

With `CC(C)Cc1cc(C(=O)NCCn2nc3ccccn3c2=O)[nH]n1`, the cytotoxicity at 70.5 h is -3.87%.

As to `COCC1CC2(CCN(S(=O)(=O)C3CC3)CC2)CN1c1ncccn1` (stereo not drawn), the cytotoxicity at 70.5 h turned out to be 14.2%.

Take `Cc1[nH]ncc1CCCNC(=O)N1CCCC(c2nncn2C)C1` (stereo not drawn): the cytotoxicity at 70.5 h was -1.78%.

For `Cc1nccc(CNC(=O)NCCOc2ccc(F)c(F)c2)n1`, the cytotoxicity at 70.5 h was -2.22%.

Take `CC(C)OC(=O)N1C[C@H]2CC[C@@H]1CN(C(=O)c1ccccn1)C2`: the cytotoxicity at 70.5 h came out at 10.5%.

On to `Cc1nc2[nH]cnc(Nc3cnn(C)c3)c-2n1`, for which the cytotoxicity at 70.5 h was 0.28%.

For `O=C(CCNC(=O)C1=Cc2ccccc2OC1)Nc1cccnc1`, the cytotoxicity at 70.5 h is -6.01%.

As to `Cc1noc([C@H]2C[C@@H]3CCN(C(=O)C4CCOCC4)C[C@H]3O2)n1`, the cytotoxicity at 70.5 h is -1.73%.

As to `O=C(NCCN1CCOCC1)c1ccc(OCc2ccccc2)nc1`, the cytotoxicity at 70.5 h was -1.05%.

For the molecule `CN1CCN(Cc2noc(-c3cc(-c4ccccc4F)n[nH]3)n2)CC1`, the cytotoxicity at 70.5 h came out at 17.5%.

Consider `CCN(CC)CCNc1nc(C(C)C)nc2c(C)nn(CC)c12`, for which the cytotoxicity at 70.5 h was -2.61%.

As for `O=C(CNC(=O)C1CC1)NCC1CCCC1`, the cytotoxicity at 70.5 h was 4.06%.

Turning to `NCc1n[nH]c(-c2cccc(F)c2)n1`, the cytotoxicity at 70.5 h stood at 32.2%.

Regarding `CC(=O)N1CCCN(CCCc2ccccc2)CC1`, the cytotoxicity at 70.5 h is -6.32%.

For `Cc1ccc(C(=O)N2CCc3c(CNS(C)(=O)=O)cncc3C2)o1`, the cytotoxicity at 70.5 h is 0.323%.

In the case of `Cc1cc(C)n(CC2CN(CC(=O)NC3CCCCC3)CCO2)n1` (stereo not drawn), the cytotoxicity at 70.5 h is -9.27%.

As to `CSc1nccn1-c1cccc(C(=O)NCC(F)(F)F)c1`, the cytotoxicity at 70.5 h was -0.984%.

With `CC(C)N(C)Cc1cnc2n1CCN(Cc1cccc(F)c1)C2`, the cytotoxicity at 70.5 h was -4.8%.

With `O=C(NCC1COC2(CCOCC2)O1)c1csc(-c2cccc(Cl)c2)n1` (stereo not drawn), the cytotoxicity at 70.5 h was -20.8%.

On to `O=C(c1cccnc1)N1CCOC2(COCCN(c3cncnc3)C2)C1` (stereo not drawn), for which the cytotoxicity at 70.5 h is -9.01%.

For the molecule `CC(C)(C)CC(=O)NCC(=O)Nc1ccn(CCCn2ccnc2)n1`, the cytotoxicity at 70.5 h was -2.26%.

In the case of `CC(C)n1ncc2c1NC(=O)CSC2C(C)(C)C` (stereo not drawn), the cytotoxicity at 70.5 h is -2.79%.

For `OCCNc1nc(NCc2cccnc2)nc2nccnc12`, the cytotoxicity at 70.5 h was found to be 16.3%.

Regarding `CCn1cc(NC(=O)C2CCN(Cc3noc(C(C)C)n3)CC2)cn1`, the cytotoxicity at 70.5 h stood at 0.996%.

`Cc1nc(C)n(C2CCCN(C(=O)c3cccc4cn[nH]c34)C2)n1` (stereo not drawn): the cytotoxicity at 70.5 h is -13.2%.

For `O=C(COc1ccc(C(F)(F)F)cc1)NS(=O)(=O)c1cccnc1`, the cytotoxicity at 70.5 h was -3.77%.

With `Cn1ccnc1CN1CCN(Cc2ccc(C#N)cc2)CC1`, the cytotoxicity at 70.5 h was -2.96%.

With `Cc1cnn(C2CCCN(C(=O)c3cc(-c4ccco4)[nH]n3)C2)c1` (stereo not drawn), the cytotoxicity at 70.5 h was -11.8%.

Turning to `CCN(Cc1cccc(-c2ccncc2)c1)S(N)(=O)=O`, the cytotoxicity at 70.5 h is -2.79%.

With `Cc1cccc(CN2C(=O)C[C@H]3[C@@H]2CCN3Cc2cccs2)n1`, the cytotoxicity at 70.5 h turned out to be 0.507%.

With `CC(C)NC(=O)Cc1cnc(-n2cccc2)s1`, the cytotoxicity at 70.5 h is -24.2%.

Consider `c1cncc(C2=NOC3(CCN(Cc4c[nH]c5ccccc45)CC3)C2)c1`, for which the cytotoxicity at 70.5 h was 5.06%.

Take `CO[C@H]1CN(C(C)C)C[C@@H]1NC(=O)c1cc(-c2ccccc2F)n[nH]1`: the cytotoxicity at 70.5 h was -6.15%.

`CCN(Cc1ccncc1)c1cc(C2CCN2C(C)=O)nc(C)n1` (stereo not drawn): the cytotoxicity at 70.5 h was -1.55%.

Turning to `CSc1ncccc1C(=O)NCC(c1ccco1)N(C)C` (stereo not drawn), the cytotoxicity at 70.5 h worked out at 4.37%.

Consider `Cc1noc(C)c1C1CCCN1C(=O)c1cn2ccsc2n1` (stereo not drawn), for which the cytotoxicity at 70.5 h was -3.13%.

As for `Cc1cc2c(N3CCC(N(C)Cc4nccs4)CC3)ncnc2s1`, the cytotoxicity at 70.5 h came to 9.35%.

In the case of `Cn1nc2c(cc1=O)CN(CCCOc1ccc(C#N)cc1)CC2`, the cytotoxicity at 70.5 h is -5.17%.

With `Cc1nc(N(C)CCN(C)C)c2cnn(C)c2n1`, the cytotoxicity at 70.5 h amounted to 19.9%.

Take `COCC(O)CNc1cncc(Br)c1` (stereo not drawn): the cytotoxicity at 70.5 h is -2.5%.

As to `O=C(CS(=O)(=O)C1CCCC1)NC1CCCc2cc(OC(F)F)ccc21` (stereo not drawn), the cytotoxicity at 70.5 h is -9.47%.

In the case of `Cc1ccc(S(=O)(=O)Nc2ccc(=O)n(C)c2)c(Br)c1`, the cytotoxicity at 70.5 h came to 21.8%.

For `COCCOc1ccc(F)cc1NCc1nc2ccccc2n1C`, the cytotoxicity at 70.5 h is 11.4%.

In the case of `Cc1cccc(-c2nnn3c2COC(CNS(=O)(=O)C2CC2)C3)c1` (stereo not drawn), the cytotoxicity at 70.5 h is -9.41%.

Regarding `O=S(=O)(c1ccccc1)N1CCC[C@]2(C[C@@H](OCC3CC3)CO2)C1`, the cytotoxicity at 70.5 h amounted to 9.43%.

For the molecule `O=C1[C@@H]2C[C@H](O)CCN2C(=O)CN1CCSc1ccccn1`, the cytotoxicity at 70.5 h stood at 0.109%.

`Cc1cc(NC(=O)NCCc2ccc3c(c2)OCCO3)n(C)n1`: the cytotoxicity at 70.5 h is -4.79%.

On to `c1cnc(N2CCC3(CCN(Cc4ccncc4)CC3)CC2)nc1`, for which the cytotoxicity at 70.5 h was -15.7%.

For the molecule `Cc1nccc(-c2ccccc2)c1C(=O)N1CC[C@](C)(O)C(C)(C)C1`, the cytotoxicity at 70.5 h turned out to be 1.9%.

On to `Cc1cnn(CCNCc2nnc(-c3ccc(F)cc3)o2)c1`, for which the cytotoxicity at 70.5 h is -10.4%.

With `CCc1nc(CNc2cc(Cl)ccc2OCC2CCCO2)no1` (stereo not drawn), the cytotoxicity at 70.5 h was -8.62%.

With `OC1CCN(c2ccc(CNc3nc4ccccc4s3)cc2F)CC1`, the cytotoxicity at 70.5 h was -9.14%.

Consider `Cc1cc(CNC(=O)N2CCc3ccccc32)on1`, for which the cytotoxicity at 70.5 h is -1.25%.

As to `O=C(c1cscn1)N1CCCC2(CCN2Cc2cccc(F)c2)C1` (stereo not drawn), the cytotoxicity at 70.5 h is -0.0272%.

Turning to `c1ccc(-c2nc3c(c(NCc4nnc5n4CCC5)n2)CCNC3)cc1`, the cytotoxicity at 70.5 h is -7.92%.

Take `CN(Cc1ccccc1)c1cnn(CC2COCCO2)c(=O)c1` (stereo not drawn): the cytotoxicity at 70.5 h was -2.99%.
